Test results reported in US20170066717A1, “NEW PHENYLAZETIDINECARBOXYLATE OR -CARBOXAMIDE COMPOUNDS” (INVENTIVA, priority 2014, published 2017).
pEC50: −log10 of the molar value.

How the values were obtained:
[1] = target: T1, NURR-1/RXRα (Homo sapiens, UniProt P19793); test: Transactivation test, NURR-1-Gal4/RXRα, luciferase reporter in Cos-7 cells; format: cell-based; conditions: for Emax: COS-7, induction level relative to reference XCT0135908 at 2×10^−5 M (=100%), read-out: hNurr1_RXRaFL Emax (%); for pEC50: Cos-7 cells, NURR-1-Gal4/RXRα, luciferase reporter, read-out: hNurr1_RXRaFL EC50
T1 construct: expressed in transfected cells; host or cells: Cos-7 cells

[2] = target: T2, NURR-1/RXRγ (Homo sapiens, UniProt P48443); test: Transactivation test, NURR-1-Gal4/RXRγ, luciferase reporter in Cos-7 cells; format: cell-based; conditions: for Emax: COS-7, induction level relative to reference XCT0135908 at 2×10^−5 M (=100%), read-out: hNurr1_RXRgFL Emax (%); for pEC50: Cos-7 cells, NURR-1-Gal4/RXRγ, luciferase reporter, read-out: hNurr1_RXRgFL EC50
T2 construct: expressed in transfected cells; host or cells: Cos-7 cells

[3] = tested on: dopaminergic neurons of primary culture of rat embryo mesencephalon treated with MPP+; test: Neuroprotection in primary culture of rat embryo mesencephalon treated with MPP+ (count of tyrosine hydroxylase expressing cells); format: cell-based; conditions: recombinant human BDNF 10 ng/mL = 100%, 2 days with MPP+
Method: Another in vitro test was carried out with the compounds according to the invention, for the purpose of verifying that the molecules indeed have the expected neuroprotective effect in vitro.
The compounds were tested in a model of primary culture of rat embryo mesencephalon treated with 1-methyl-4-phenylpyridinium (MPP+), which is the active metabolite of 1-methyl-4-phenyl-1,2,3,6-tetrahydropyridine (MPTP). MPP+ enters into dopananergic neurons via the dopamine transporter and causes the death of these dopaminergic neurons. The following protocol was used.
Gestating female rats (15 days of gestation) were euthanized and the rat embryos were removed. The mesencephalons were removed. The tissue was then dissociated mechanically and by using trypsin. The cells collected after centrifugation were distributed into 96-well plates and left to stand for 5 days. The culture conditions made it possible to obtain a cell layer composed of neurons (dopaminergic and others) and astrocytes. On the 6th day, the cells were optionally treated with MPP+ in the presence or absence of test compound. After 2 days of incubation, the cells were fixed and various cell labellings were carried out; staining of the nuclei with the Hoechst fluorescent label and immunolabelling of tyrosine hydroxylase. The cells expressing tyrosine hydroxylase were counted using an image analyzer coupled to an optical microscope.
Recombinant human BDNF trophic factor (10 ng/mL) was used as reference. The activities of the compounds are given as percentages of activity relative to the BDNF reference, the activity of which is arbitrarily defined as being equal to 100%.

[4] = Plasma pharmacokinetics in mice after oral administration; format: in vivo; conditions: mouse, male C57/Bl6 mice, oral 10 mg/kg; for AUC: sampling 15 min to 7 h, log-linear trapezoidal method, read-out: AUCplasma; for Cmax: suspension in 1% methylcellulose/0.1% Poloxamer 188
Method: (§1) Three series of in vivo tests were carried out with compounds representative of the invention, for the purpose of determining their pharmacokinetic plasma profile and their brain penetration.
1. Study of the Plasma Phannacokinectis in Mice After Oral Administration
Male C57/B16 mice (25-30 g) originating from the establishment Janvier, Le Genest-St-Isle, France were used for this study (9 mice per dose). The animals were fed with standard feed for rodents (Purina Mills, St. Louis, Mo.), placed in cages and subjected to light/darkness cycles of 12 h/12 h, the temperature of the room being maintained at 22±2° C. and the humidity level at 55±10%.
The mice were not deprived food before the administration. Water was provided at will throughout the study. The test compound was admistered orally at 10 mg/kg. For the oral administration at 10 mg/kg, the animals were green, by gavage, 10 mL/kg of a suspension of the test compound, prepared in 1% methylcellulose, 400 cps/0.1% Poloxamer 188/water.
The animals were sacrificed under anesthesia at times 15 min, 30 min, 1 h, 3 h and 7 h after gavage. The blood was collected at each time, and from each animal sacrificed 0.5 mL of blood collected in 1.5 mL tubes containing 20 μL of evaporated anticoagulant (solution of sodium heparinate at 1000 IU/mL) was centrifuged at 4500 g for 3 min in order to obtain approximately 200 μL of plasma. The plasma was divided up into 2 aliquots of 70 μL minimum, which were stoted at −20° C. until they were treated by protein precipitation and then analysis by liquid chromatography coupled to tandem mass spectrometry (LC-MS/MS) in order to quantify the compound tested.
The pharmacokinetic plasma parameters in the mice after oral administration were determined using a non-compartmental approach with the Phoenix WinNonLin software. The area under the curve (AUC0-1) was determined bv the log-linear trapezoidal method. The tesults are brought together in the following table.

[5] = Brain penetration in rats after intravenous administration; format: in vivo; conditions: rat; for Kp at 4 h: male, Wistar, intravenous, 4 mg/kg, ratio of Cmax brain to Cmax plasma after the 4 hours of infusion, rats, read-out: Kp (partition coefficient between the brain and the plasma); for Cmax at 4 h: male Wistar rats, 4 mg/kg iv infusion into the jugular vein for 4 hours, plasma at end of infusion
Method: as §1
2. Study of the Brain Penetration in Rats After Intravenous Administration
Male Wistar rats (250-300 g) originating from the establishment Janvier, Le Genest-St-Isle, France were used for this study (4 rats per study). The animals were fed with standard feed for rodents (Purina Mills, St. Louis, Mo.), placed in cages and subjected to light/darkness cycles of 12 h/12 h, the room temperature being maintained at 22±2° C. and the humidity level at 55±10%. The rats were not deprived food before the administration. Water was provided at will throughout the study.
The test compound was administered intravenously at 4 mg/kg by infusion into the jugular vein for 4 hours. For the intravenous administration, the animals were infused with 12 mL/kg of a solution of the test compound, prepared in 2% Cremophor EL/0.9% NaCl.
The animals were sacrificed under anesthesia after 4 hours of infusion. The blood and the brain were collected from each sacrificed animal 0.5 mL of blood collected in 1.5 mL tubes containing 20 μL of evaporated anticoagulant (solution of sodium heparinate at 1000 IU/mL) was centrifuged at 4500 g for 3 min in order to obtain approximately 200 μL of plasma. The plasma was divided up into 2 aliquots of 70 μL minimum, which were stored at −20° C. until they were treated by protein precipitation and then analysis by liquid chromatography coupled to tandem mass spectrometry (LC-MS/MS) in order to quantify the compound tested.
The brains were immersed in liquid nitrogen directly after they were removed, then stored at −20° C. for analysis. The brains were then ground in the presence of an aqueous/organic solvent mixture in order to obtain a homogenate. These homogenates were then centrifuged and the compound tested was extracted from the supernatant obtained, by liquid-liquid extraction, and then quantified by LC-MS/MS.
The brain penetration in the rats is represented by the Kp, which is the partition coefficient between the brain and the plasma. It is calculated by the ratio of the concentration measured in the brain (Cmax brain) and the plasma (Cmax plasma) after the 4 hours of infusion.

T1 sequence (P19793 whole entry, the tested form may be a part): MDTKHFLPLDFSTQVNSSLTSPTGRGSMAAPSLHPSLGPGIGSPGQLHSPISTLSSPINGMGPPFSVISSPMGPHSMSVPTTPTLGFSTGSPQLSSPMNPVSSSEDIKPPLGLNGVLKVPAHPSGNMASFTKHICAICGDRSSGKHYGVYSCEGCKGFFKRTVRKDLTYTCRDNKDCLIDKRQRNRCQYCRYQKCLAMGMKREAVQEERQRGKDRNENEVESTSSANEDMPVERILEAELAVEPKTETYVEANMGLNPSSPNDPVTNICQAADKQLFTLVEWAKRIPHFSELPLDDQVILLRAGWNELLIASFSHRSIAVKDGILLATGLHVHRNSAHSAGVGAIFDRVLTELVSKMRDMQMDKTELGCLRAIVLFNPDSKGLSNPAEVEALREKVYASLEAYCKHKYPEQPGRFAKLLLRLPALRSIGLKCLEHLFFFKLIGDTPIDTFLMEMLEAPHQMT
T1 sequence (P43354 whole entry partner, the tested form may be a part): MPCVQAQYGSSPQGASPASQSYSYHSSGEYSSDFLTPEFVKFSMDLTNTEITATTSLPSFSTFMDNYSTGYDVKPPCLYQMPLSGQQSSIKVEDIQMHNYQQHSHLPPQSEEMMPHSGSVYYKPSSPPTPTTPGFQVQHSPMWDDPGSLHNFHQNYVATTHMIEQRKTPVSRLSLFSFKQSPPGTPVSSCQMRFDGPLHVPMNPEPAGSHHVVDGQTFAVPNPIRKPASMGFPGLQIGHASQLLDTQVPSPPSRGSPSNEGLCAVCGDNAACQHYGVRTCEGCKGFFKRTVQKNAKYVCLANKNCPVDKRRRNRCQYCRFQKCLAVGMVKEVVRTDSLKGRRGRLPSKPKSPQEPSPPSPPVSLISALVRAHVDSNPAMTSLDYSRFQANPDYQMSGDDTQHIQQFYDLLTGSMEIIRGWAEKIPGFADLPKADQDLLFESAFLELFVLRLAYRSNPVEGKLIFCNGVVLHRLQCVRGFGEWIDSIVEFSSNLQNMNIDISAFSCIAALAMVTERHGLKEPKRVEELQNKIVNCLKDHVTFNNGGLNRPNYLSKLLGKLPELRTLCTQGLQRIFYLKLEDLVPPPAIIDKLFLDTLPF
T1 sequence (P04386 1-147 partner limits assumed): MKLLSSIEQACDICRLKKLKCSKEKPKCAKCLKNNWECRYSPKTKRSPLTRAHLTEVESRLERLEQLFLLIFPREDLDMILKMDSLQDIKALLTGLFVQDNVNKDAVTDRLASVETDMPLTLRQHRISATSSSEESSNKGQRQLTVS
T2 sequence (P48443 whole entry, the tested form may be a part): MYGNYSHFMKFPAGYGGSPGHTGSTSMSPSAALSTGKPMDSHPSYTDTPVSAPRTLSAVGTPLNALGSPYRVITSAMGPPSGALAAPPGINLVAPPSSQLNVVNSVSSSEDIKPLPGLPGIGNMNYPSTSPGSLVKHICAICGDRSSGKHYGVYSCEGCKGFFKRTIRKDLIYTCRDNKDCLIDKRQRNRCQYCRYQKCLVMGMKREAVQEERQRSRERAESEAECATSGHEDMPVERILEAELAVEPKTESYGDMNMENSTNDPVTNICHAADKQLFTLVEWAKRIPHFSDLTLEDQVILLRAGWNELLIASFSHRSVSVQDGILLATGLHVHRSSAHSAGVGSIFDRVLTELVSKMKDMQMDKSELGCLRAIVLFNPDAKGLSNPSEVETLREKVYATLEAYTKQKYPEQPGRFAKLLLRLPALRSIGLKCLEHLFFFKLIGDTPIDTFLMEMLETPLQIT
T2 sequence (P43354 whole entry partner, the tested form may be a part): as the sequence (P43354 whole entry partner, the tested form may be a part) above
T2 sequence (P04386 1-147 partner limits assumed): as the sequence (P04386 1-147 partner limits assumed) above

Emax [1] [%] | pEC50 [1] | Emax [2] [%] | pEC50 [2] | AUC [4] [µg·h/mL] | Cmax [4] [µg/mL] | Kp at 4 h [5] | Cmax at 4 h [5] [µg/mL] | melting point [°C] | Structure (SMILES) | percentage of activity relative to the BDNF reference ([3]; compound 1 μM) [%] | percentage of activity relative to the BDNF reference ([3]; compound 10 μM) [%]
98 | 7.96 | 86 | 7.38 | 34.1 | 14.1 | 0.44 | 1.92 | 143 to 154 | CC(C)c1cc2c(c(-c3cccc(N4CC(C(=O)[O-])C4)c3)c1)NCC1(CCC1)O2.[Na+] [Example 196, sodium 1-[3-(7-isopropylspiro[3,4-dihydro-1,4-benzoxazine-2,1′-cyclobutane]-5-yl)phenyl]azetidine-3-carboxylate] |  | 
103 | 7.62 | 117 | 7.02 | 19 | 17.5 | 0.28 | 4.92 | 77 to 79 | CC(C)c1cc2c(c(-c3cccc(N4CC(C(=O)O)C4)c3)c1)NCCC2 [Example 199, 1-[3-(6-isopropyl-1,2,3,4-tetrahydroquinolin-8-yl)phenyl]azetidine-3-carboxylic acid] |  | 
95 | 6.90 | 78 | 6.61 | 2.92 | 3.8 | 0.19 | 1.01 | 74 to 79 | CC(C)c1cc2c(c(-c3cccc(N4CC(C(=O)O)C4)c3)c1)NCCC(C)(C)O2 [Example 200, 1-[3-(8-isopropyl-2,2-dimethyl-4,5-dihydro-3H-1,5-benzoxazepin-6-yl)phenyl]azetidine-3-carboxylic acid] |  | 
113 | 7.10 | 122 | 6.76 | 13.7 | 6.43 | 0.42 | 3.26 | 223 to 227 | CC1(C)CN(c2cccc(N3CC(C(=O)[O-])C3)c2)c2ccc(C(C)(C)C)cc2O1.[Na+] [Example 225, sodium 1-[3-(7-tert-butyl-2,2-dimethyl-3-H-1,4-benzoxazin-4-yl)phenyl]azetidine-3-carboxylate] |  | 
111 | 7.01 | 112 | 6.83 | 15.5 | 6.97 | 0.29 | 2.16 | 64 to 70 | CC(C)c1ccc2c(c1)OC(C)(C)CN2c1cccc(N2CC(C(=O)O)C2)c1 [Example 228, 1-[3-(7-isopropyl-2,2 dimethyl-3H-1,4-benzoxazin-4-yl)phenyl]azetidine-3-carboxylic acid] |  | 
113 | 9.09 | 99 | 8.70 | 33.7 | 7.56 | 0.36 | 7.66 | 172 to 195 | CC1(C)C=C(c2cccc(N3CC(C(=O)[O-])C3)c2)c2ccc(C(F)(F)F)cc2O1.[Na+] [Example 263, sodium 1-[3-[2,2-dimethyl-7-(trifluoromethyl)chromen-4-yl]phenyl]azetidine-3-carboxylate] |  | 
110 | 8.22 | 123 | 7.92 | 0.372 | 0.584 | 1.81 | 0.098 | 100 | CC1(C)CN(c2cccc(N3CC(C(N)=O)C3)c2)c2ccc(C(F)(F)F)cc2O1 [Example 273, 1-[3-[2,2-dimethyl-7-(trifluoromethyl)-3H-1,4-benzoxazin-4-yl]phenyl]azetidine-3-carboxamide] |  | 

Structure (SMILES) | Emax [1] [%] | pEC50 [1] | Emax [2] [%] | pEC50 [2] | AUC [4] [µg·h/mL] | Cmax [4] [µg/mL] | Kp at 4 h [5] | Cmax at 4 h [5] [µg/mL] | melting point [°C] | percentage of activity relative to the BDNF reference ([3]; compound 1 μM) [%] | percentage of activity relative to the BDNF reference ([3]; compound 10 μM) [%]
Cc1cc(-c2cc(C(C)(C)C)cc(C(C)(C)C)c2)cc(N2CC(C(=O)O)C2)c1 [Example 7, 1-[3-(3,5-di-tertbutylphenyl)-5-methylphenyl]azetidine-3-carboxylic acid] | 100 | 8.40 | 97 | 8.22 | 48.6 | 12.8 | 0.76 | 6.75 |  | 61 | 72
CC(C)(C)c1cc(-c2cccc(N3CC(C(=O)O)C3)c2)cc(C(C)(C)C)c1 [Example 11, 1[3-(3,5-di-tert-butylphenyl)phenyl]azetidine-3-carboxylic acid] | 105 | 7.96 | 100 | 7.85 | 52 | 10.3 | 1.22 | 4.14 |  | 78 | 88
Cc1cc(-c2ccc(Cl)c(C(F)(F)F)c2)cc(N2CC(C(=O)O)C2)c1 [Example 22, 1-[3-[4-chloro-3-(trifluoromethyl)phenyl]-5-methylphenyl]azetidine-3-carboxylic acid] | 91 | 8.05 | 87 | 7.89 | 72.2 | 18.6 | 0.14 | 9.9 |  | 79 | 103
Cc1cc(N2CC(C(=O)O)C2)cc(-n2ccc3cc(C(F)(F)F)ccc32)c1 [Example 50, 1-[3-methyl-5[5-(trifluoromethyl)indol-1-yl]phenyl]azetidine-3-carboxylic acid] | 95 | 8.70 | 102 | 8.30 | 24.3 | 11.4 | 0.19 | 4.92 |  | 74 | 91
